1 substance from patent US5519115A, “Reverse antimicrobial peptides” (priority 1993, dated 1996) can be followed below.

For assay [1], the system named is P3 Fusarium. Description: Antifungal bioassay (MCIC, spore germination). It counts as cell-based, P3 Fusarium (field isolate). Particulars: 10^7 spores/test; mean after 24 hours of treatment, at least three replicates. How it is done:
Fungi were grown on an appropriate medium, in this case a potato dextrose agar plate, for several weeks. At the end of that period, the plate was flooded with about 5 mL of sterile distilled water to harvest spores. The spore concentration was determined by use of a hemocytometer and the spore suspension was stored in a sterile tube at 4° C. until it was needed. Then 82 microliters of potato dextrose broth and 3 microliters of spore suspension (ranging from 10^5 to 10^7 spores total) were added to 12 wells in a 96 well microtiter plate for each AMPPP to be tested, with 1-4 replicate sets of 12 wells prepared for each AMPPP within a single experiment. […] The amount of spore germination and fungal growth was recorded as a quantitative measurement at each observation time using a system of pluses and minuses: [-] meant no germination having occurred, [+] meant swollen spores with an extended germ tube, [++] meant the beginnings of mycelial growth with the overall appearance of a loose lattice, and [+++] meant a dense mycelial growth with the overall appearance of a thick opaque meshwork. The MCIC value for each AMPPP tested was then recorded, where the MCIC value is defined as the lowest peptide concentration at which no spore germination occurred (rating=[-]). […]

In assay [2] the test system is Erwinia carotovora carotovora strain SR319 (Ecc SR319). Description: Antibacterial bioassay (MCIC). It counts as cell-based. How it is done:
Erwinia carotovora carotovora strain SR319 (Ecc SR319) (a gift of Dr. C. H. Liao, USDA-ARS, Philadelphia, Pa.) was streaked on a plate of Luria-Bertani ("LB") broth agar and grown overnight at 28° C. After 24 hours, a loopful of Ecc SR319 was picked from the agar plate and was added to 3 ml of LB broth (10 g Bacto-tryptone, 5 g Bacto-yeast extract, and 10 g sodium chloride per liter of solution; autoclaved sterile) in a capped sterile 10 ml test tube. This culture was grown overnight before its optical density at 630 nm was recorded using a Dynatech MR 600 microplate reader (Dynatech Laboratories, Inc., Alexandria, Va.). A portion of the overnight culture was adjusted with Luria broth to obtain a culture with an optical density at 630 nm of 0.2. About 250 microliters of this culture was added to 2250 microliters of Luria broth in a capped, sterile 10 ml test tube before this diluted culture was grown for 3-4 hours at 28° C. in a shaking incubator until the optical density of the freshly grown culture at 630 nm reached 0.2. […] The optical density of each Ecc SR319 culture well was recorded at 20 hours and then at 44 hours. A minimum complete inhibitory concentration (MCIC) was then determined for each replicate set of varying peptide concentrations at which no bacterial growth was observed. […]

“Met-Mag 1 dimer (head-to-tail) [Peptide No. 9]”: the “MCIC Values With: P3 Fusarium” value in assay [1] is 15+/-6 micrograms per mL. In assay [2] (mean after 20 hours of treatment, at least three replicate experiments), the “MCIC Values (Ecc SR319)” value was 33 +/- 5 micrograms per mL. In addition, in assay [2] (tested at equivalent microgram per mL quantities, parent monomers Pep Nos. 1, 2, 4, and 12), the “activity against Ecc SR319 compared with parent monomers (in words)” value was “better activity than at least one of the parent monomers”.
